Consider 17 molecules from patent US10633379B2, “Bromodomain inhibitors” (AbbVie Inc., priority 2016, dated 2020).

One assay concerns the target BRD4 (BDI_K57-E168) (Homo sapiens (Human), UniProt O60885). Description: TR-FRET bromodomain binding assay, BRD4 BDI. The settings on record: mean Ki, calculated from IC50, probe Kd and probe concentration. The method, boiled down: (§1)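 His-tagged BRD4 BDI (12 nM, with 100 nM Alexa647 BET-inhibitor probe) or BDII (4 nM, 30 nM probe), plus 1 nM Eu-anti-His antibody, in pH 6.0 phosphate buffer with 2% DMSO. Equilibrated 1 h at room temperature and read by TR-FRET. IC50 from a 4-parameter fit was converted to Ki using probe Kd and probe concentration.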

The next assay deals with BRD4 (BDII_E352-M457) (Homo sapiens (Human), UniProt O60885). Description: TR-FRET bromodomain binding assay, BRD4 BDII. The settings on record: mean Ki, calculated from IC50, probe Kd and probe concentration. In a few lines: as §1

The structures appear in SMILES notation.

One may read the Ki as the equilibrium dissociation constant of an inhibitor or competing ligand from its target. For the molecule `CCNC(=O)c1cc2c(-c3cc(C(C)(O)CC(C)C)ccc3Oc3c(C)cccc3C)cn(C)c(=O)c2[nH]1` (stereo not shown) [Example 105, 4-[2-(2,6-dimethylphenoxy)-5-(2-hydroxy-4-methylpentan-2-yl)phenyl]-N-ethyl-6-methyl-7-oxo-6,7-dihydro-1H-pyrrolo[2,3-c]pyridine-2-carboxamide], the figures for the Ki on BRD4 (BDI_K57-E168) and on BRD4 (BDII_E352-M457) were 1340 nM and 2.5 nM, respectively.

In the case of `CCNC(=O)c1cc2c(-c3cc(C(C)(C)O)ccc3Oc3c(C)cc(C(C)(C)O)cc3C)cn(C)c(=O)c2[nH]1` [Example 107, N-ethyl-4-{5-(2-hydroxypropan-2-yl)-2-[4-(2-hydroxypropan-2-yl)-2,6-dimethylphenoxy]phenyl}-6-methyl-7-oxo-6,7-dihydro-1H-pyrrolo[2,3-c]pyridine-2-carboxamide], the Ki on BRD4 (BDI_K57-E168) is 231 nM; on BRD4 (BDII_E352-M457) it was 0.8 nM.

For `Cc1cc(C(C)(C)O)cc(C)c1Oc1ccc(C(C)(C)O)cc1-c1cn(C)c(=O)c2[nH]c(C(=O)NC(C)(C)C)cc12` [Example 108, N-tert-butyl-4-{5-(2-hydroxypropan-2-yl)-2-[4-(2-hydroxypropan-2-yl)-2,6-dimethylphenoxy]phenyl}-6-methyl-7-oxo-6,7-dihydro-1H-pyrrolo[2,3-c]pyridine-2-carboxamide], the values for the Ki on BRD4 (BDI_K57-E168) and at BRD4 (BDII_E352-M457) were 175 nM and 1.6 nM, respectively.

Regarding `CCNC(=O)c1cc2c(-c3cc(C(C)(C)O)cnc3Oc3c(C)ccc(Cl)c3C)cn(C)c(=O)c2[nH]1` [Example 109, 4-[2-(3-chloro-2,6-dimethylphenoxy)-5-(2-hydroxypropan-2-yl)pyridin-3-yl]-N-ethyl-6-methyl-7-oxo-6,7-dihydro-1H-pyrrolo[2,3-c]pyridine-2-carboxamide], the Ki on BRD4 (BDI_K57-E168) is 169 nM; on BRD4 (BDII_E352-M457), 1.1 nM.

As for `CCNC(=O)c1cc2c(-c3cc(C(C)(C)O)ccc3-c3ccc(OC(F)(F)F)cc3)cn(C)c(=O)c2[nH]1` [Example 110, N-ethyl-4-[4-(2-hydroxypropan-2-yl)-4′-(trifluoromethoxy) [1,1′-biphenyl]-2-yl]-6-methyl-7-oxo-6,7-dihydro-1H-pyrrolo[2,3-c]pyridine-2-carboxamide], the inhibition constant (Ki) is 224 nM on BRD4 (BDI_K57-E168) and 2 nM on BRD4 (BDII_E352-M457).

Regarding `CCNC(=O)c1cc2c(-c3cc(C(C)(C)O)ccc3C3=CCC(F)(F)CC3)cn(C)c(=O)c2[nH]1` [Example 111, 4-[4′,4′-difluoro-4-(2-hydroxypropan-2-yl)[2′,3′,4′,5′-tetrahydro[1,1′-biphenyl]]-2-yl]-N-ethyl-6-methyl-7-oxo-6,7-dihydro-1H-pyrrolo[2,3-c]pyridine-2-carboxamide], the inhibitory constant (Ki) on BRD4 (BDI_K57-E168) is 150 nM; on BRD4 (BDII_E352-M457), 1.4 nM.

Regarding `Cc1cc(F)cc(C)c1Oc1ccc(C(C)(C)O)cc1-c1cn(C)c(=O)c2[nH]c(C(N)=O)cc12` [Example 112, 4-[2-(4-fluoro-2,6-dimethylphenoxy)-5-(2-hydroxypropan-2-yl)phenyl]-6-methyl-7-oxo-6,7-dihydro-1H-pyrrolo[2,3-c]pyridine-2-carboxamide], the Ki at BRD4 (BDI_K57-E168) was 332 nM; at BRD4 (BDII_E352-M457) it was 2.3 nM.

Consider `CCNC(=O)c1cc2c(-c3cc(C(C)(C)O)ccc3C3=CCC(C)CC3)cn(C)c(=O)c2[nH]1` (stereo not shown) [Example 113, N-ethyl-4-[4-(2-hydroxypropan-2-yl)-4′-methyl[2′,3′,4′,5′-tetrahydro[1,1′-biphenyl]]-2-yl]-6-methyl-7-oxo-6,7-dihydro-1H-pyrrolo[2,3-c]pyridine-2-carboxamide], for which the Ki at BRD4 (BDI_K57-E168) was 98 nM; at BRD4 (BDII_E352-M457), 1.5 nM.

Turning to `CCNC(=O)c1cc2c(-c3cc(C(C)(C)O)ccc3C3=CCCC3)cn(C)c(=O)c2[nH]1` [Example 114, 4-[2-(cyclopent-1-en-1-yl)-5-(2-hydroxypropan-2-yl)phenyl]-N-ethyl-6-methyl-7-oxo-6,7-dihydro-1H-pyrrolo[2,3-c]pyridine-2-carboxamide], the values for the inhibition constant Ki at BRD4 (BDI_K57-E168) and at BRD4 (BDII_E352-M457) were 96 nM and 1.3 nM, respectively.

For `CCNC(=O)c1cc2c(-c3cc(C(C)(O)CO)ccc3Oc3c(C)cccc3Cl)cn(C)c(=O)c2[nH]1` (stereo not shown) [Example 115, 4-[2-(2-chloro-6-methylphenoxy)-5-(1,2-dihydroxypropan-2-yl)phenyl]-N-ethyl-6-methyl-7-oxo-6,7-dihydro-1H-pyrrolo[2,3-c]pyridine-2-carboxamide], the inhibition constant (Ki) on BRD4 (BDI_K57-E168) was 323 nM; at BRD4 (BDII_E352-M457) it was 1.4 nM.

Turning to `Cc1cccc(Cl)c1Oc1ccc(C(C)(O)CO)cc1-c1cn(C)c(=O)c2[nH]c(C(=O)NC(C)(C)C)cc12` (stereo not shown) [Example 116, N-tert-butyl-4-[2-(2-chloro-6-methylphenoxy)-5-(1,2-dihydroxypropan-2-yl)phenyl]-6-methyl-7-oxo-6,7-dihydro-1H-pyrrolo[2,3-c]pyridine-2-carboxamide], the inhibition constant Ki at BRD4 (BDI_K57-E168) is 756 nM; at BRD4 (BDII_E352-M457), 2.9 nM.

As to `Cc1cccc(C)c1Oc1ccc(C(C)(C)O)cc1-c1cn(C)c(=O)c2[nH]c(C(N)=O)cc12` [Example 117, 4-[2-(2,6-dimethylphenoxy)-5-(2-hydroxypropan-2-yl)phenyl]-6-methyl-7-oxo-6,7-dihydro-1H-pyrrolo[2,3-c]pyridine-2-carboxamide], the inhibition constant Ki on BRD4 (BDI_K57-E168) was 215 nM; at BRD4 (BDII_E352-M457), 1.5 nM.

Regarding `Cc1cc(F)cc(Cl)c1Oc1ccc(C(C)(O)CO)cc1-c1cn(C)c(=O)c2[nH]c(C(=O)NC(C)(C)C)cc12` (stereo not shown) [Example 118, N-tert-butyl-4-[2-(2-chloro-4-fluoro-6-methylphenoxy)-5-(1,2-dihydroxypropan-2-yl)phenyl]-6-methyl-7-oxo-6,7-dihydro-1H-pyrrolo[2,3-c]pyridine-2-carboxamide], the inhibition constant (Ki) is 1390 nM on BRD4 (BDI_K57-E168) and 10.4 nM at BRD4 (BDII_E352-M457).

Turning to `CCNC(=O)c1cc2c(-c3cc(C(C)(O)CO)ccc3Oc3c(C)cc(F)cc3Cl)cn(C)c(=O)c2[nH]1` (stereo not shown) [Example 119, 4-[2-(2-chloro-4-fluoro-6-methylphenoxy)-5-(1,2-dihydroxypropan-2-yl)phenyl]-N-ethyl-6-methyl-7-oxo-6,7-dihydro-1H-pyrrolo[2,3-c]pyridine-2-carboxamide], the results for the inhibitory constant (Ki) on BRD4 (BDI_K57-E168) and on BRD4 (BDII_E352-M457) were 346 nM and 2.2 nM, respectively.

On to `CNC(=O)c1cc2c(-c3cc(C(C)(C)O)ccc3Oc3c(C)cc(F)cc3C)cn(C)c(=O)c2[nH]1` [Example 120, 4-[2-(4-fluoro-2,6-dimethylphenoxy)-5-(2-hydroxypropan-2-yl)phenyl]-N,6-dimethyl-7-oxo-6,7-dihydro-1H-pyrrolo[2,3-c]pyridine-2-carboxamide], for which the figures for the Ki at BRD4 (BDI_K57-E168) and at BRD4 (BDII_E352-M457) were 161 nM and 0.8 nM, respectively.

With `Cc1cc(F)cc(C)c1Oc1ccc(C(C)(C)O)cc1-c1cn(C)c(=O)c2[nH]c(C(=O)NC3CC3)cc12` [Example 121, N-cyclopropyl-4-[2-(4-fluoro-2,6-dimethylphenoxy)-5-(2-hydroxypropan-2-yl)phenyl]-6-methyl-7-oxo-6,7-dihydro-1H-pyrrolo[2,3-c]pyridine-2-carboxamide], the Ki at BRD4 (BDI_K57-E168) was 356 nM; on BRD4 (BDII_E352-M457), 0.6 nM.

For the molecule `CCNC(=O)c1cc2c(-c3cc(C4(O)CCC4)ccc3Oc3c(C)cc(F)cc3C)cn(C)c(=O)c2[nH]1` [Example 122, N-ethyl-4-[2-(4-fluoro-2,6-dimethylphenoxy)-5-(1-hydroxycyclobutyl)phenyl]-6-methyl-7-oxo-6,7-dihydro-1H-pyrrolo[2,3-c]pyridine-2-carboxamide], the results for the Ki at BRD4 (BDI_K57-E168) and on BRD4 (BDII_E352-M457) were 308 nM and 2 nM, respectively.
